Experimental data from publication PMC2862277 (The Journal of neuroscience : the official journal of the …, 2010).
“And” between values parts separate entries of the source, which are not always exact repeats. Equal values may be shown once. Read-outs that look alike come from different tables or passages of the source.

Legend:
NR1/NR2A = NR1/NR2A (Rattus norvegicus, UniProt P35439+Q00959); experiment: Two electrode voltage clamp recording from Xenopus laevis oocytes; type: cell-based; conditions: relative to maximal glycine (100 μM), 100 μM glutamate
NR1/NR2B = NR1/NR2B (Rattus norvegicus, UniProt P35439+Q00960); experiment: as above; type: cell-based; conditions: relative to maximal glycine (100 μM), 100 μM glutamate
NR1/NR2C [1] = biological target: T1, NR1/NR2C (Rattus norvegicus, UniProt P35439+Q00961); experiment: as above; type: cell-based; conditions: NR1/NR2C; relative to maximal glycine (100 μM), 100 μM glutamate
NR1/NR2D = NR1/NR2D (Rattus norvegicus, UniProt P35439+Q62645); experiment: as above; type: cell-based; conditions: relative to maximal glycine (100 μM), 100 μM glutamate
NR1(R523A)/NR2B = NR1(R523A)/NR2B (Rattus norvegicus, UniProt P35439+Q00960, R523A); experiment: TEVC recording from Xenopus oocytes, mutant receptor; type: cell-based
NR1(R523A)/NR2C = NR1(R523A)/NR2C (Rattus norvegicus, UniProt P35439+Q00961, R523A); experiment: as above; type: cell-based
NR1/NR2B(R693A) = NR1/NR2B(R693A) (Rattus norvegicus, UniProt P35439+Q00960, R693A); experiment: as above; type: cell-based
NR1/NR2C(R703A) = NR1/NR2C(R703A) (Rattus norvegicus, UniProt P35439+Q00961, R690A); experiment: as above; type: cell-based
NR1/NR2A(E798Q) = NR1/NR2A(E798Q) (Rattus norvegicus, UniProt P35439+Q00959, E789Q); experiment: as above; type: cell-based
NR1/NR2B(E790Q) = NR1/NR2B(E790Q) (Rattus norvegicus, UniProt P35439+Q00960, E790Q); experiment: as above; type: cell-based
NR1/NR2C(Q800E) = NR1/NR2C(Q800E) (Rattus norvegicus, UniProt P35439+Q00961, Q787E); experiment: as above; type: cell-based
NR1/NR2D(E791Q) = NR1/NR2D(E791Q) (Rattus norvegicus, UniProt P35439+Q62645, E814Q); experiment: as above; type: cell-based
NR1/NR2B(E790A) = NR1/NR2B(E790A) (Rattus norvegicus, UniProt P35439+Q00960, E790A); experiment: as above; type: cell-based
NR1/NR2C(Q800A) = NR1/NR2C(Q800A) (Rattus norvegicus, UniProt P35439+Q00961, Q787A); experiment: as above; type: cell-based
NR1(Y692A)/NR2A = NR1(Y692A)/NR2A (Rattus norvegicus, UniProt P35439+Q00959, Y692A); experiment: as above; type: cell-based
NR1(Y692A)/NR2B = NR1(Y692A)/NR2B (Rattus norvegicus, UniProt P35439+Q00960, Y692A); experiment: as above; type: cell-based
NR1(Y692A)/NR2C = NR1(Y692A)/NR2C (Rattus norvegicus, UniProt P35439+Q00961, Y692A); experiment: as above; type: cell-based
NR1(Y692A)/NR2D = NR1(Y692A)/NR2D (Rattus norvegicus, UniProt P35439+Q62645, Y692A); experiment: as above; type: cell-based
NR1(R755A)/NR2C = NR1(R755A)/NR2C (Rattus norvegicus, UniProt P35439+Q00961, R755A); experiment: as above; type: cell-based
NR1/NR2C(S707N,R710P) = NR1/NR2C(S707N,R710P) (Rattus norvegicus, UniProt P35439+Q00961, R697P/S694N); experiment: as above; type: cell-based
NR1(E781A)/NR2B = NR1(E781A)/NR2B (Rattus norvegicus, UniProt P35439+Q00960, E781A); experiment: as above; type: cell-based
NR1(E781A)/NR2C = NR1(E781A)/NR2C (Rattus norvegicus, UniProt P35439+Q00961, E781A); experiment: as above; type: cell-based
NR1/NR2C [2] = biological target: T1, NR1/NR2C; type: cell-based
NR1/NR2C [3] = biological target: T1, NR1/NR2C; experiment: Single-channel recording from outside-out patches containing one active channel; type: cell-based
NR1/NR2C [4] = biological target: T1, NR1/NR2C; experiment: Maximum interval likelihood fitting of Scheme 1 to single channel data; type: cell-based
NR1/NR2C [5] = biological target: T1, NR1/NR2C; experiment: Least-squares fitting of Scheme 1a to macroscopic currents; type: cell-based
[6] = ref McBain et al., 1989; cited from earlier work
[7] = 1 s concentration jump from DCS into glutamate plus DCS
[8] = 1 mM agonist + 1 mM glutamate, 0.5 mM Ca2+
[9] = 1 mM agonist + 1 mM glutamate, 0.5 mM Ca2+, reversal potential assumed 0 mV
[10] = Figure 7B, paired recordings glycine vs DCS
[11] = average of 6 individually fitted patches
[12] = composite open time histogram from 6 patches
[13] = composite shut time histogram from 6 patches
[14] = representative recording from one patch (Figure 8B)
[15] = Table 2, Scheme I (Monte Carlo simulation of gating model)
[16] = this particular patch (Figure 8B), MIL fit Scheme 1

T1 sequence (Q00961 20-1237, other chains not shown): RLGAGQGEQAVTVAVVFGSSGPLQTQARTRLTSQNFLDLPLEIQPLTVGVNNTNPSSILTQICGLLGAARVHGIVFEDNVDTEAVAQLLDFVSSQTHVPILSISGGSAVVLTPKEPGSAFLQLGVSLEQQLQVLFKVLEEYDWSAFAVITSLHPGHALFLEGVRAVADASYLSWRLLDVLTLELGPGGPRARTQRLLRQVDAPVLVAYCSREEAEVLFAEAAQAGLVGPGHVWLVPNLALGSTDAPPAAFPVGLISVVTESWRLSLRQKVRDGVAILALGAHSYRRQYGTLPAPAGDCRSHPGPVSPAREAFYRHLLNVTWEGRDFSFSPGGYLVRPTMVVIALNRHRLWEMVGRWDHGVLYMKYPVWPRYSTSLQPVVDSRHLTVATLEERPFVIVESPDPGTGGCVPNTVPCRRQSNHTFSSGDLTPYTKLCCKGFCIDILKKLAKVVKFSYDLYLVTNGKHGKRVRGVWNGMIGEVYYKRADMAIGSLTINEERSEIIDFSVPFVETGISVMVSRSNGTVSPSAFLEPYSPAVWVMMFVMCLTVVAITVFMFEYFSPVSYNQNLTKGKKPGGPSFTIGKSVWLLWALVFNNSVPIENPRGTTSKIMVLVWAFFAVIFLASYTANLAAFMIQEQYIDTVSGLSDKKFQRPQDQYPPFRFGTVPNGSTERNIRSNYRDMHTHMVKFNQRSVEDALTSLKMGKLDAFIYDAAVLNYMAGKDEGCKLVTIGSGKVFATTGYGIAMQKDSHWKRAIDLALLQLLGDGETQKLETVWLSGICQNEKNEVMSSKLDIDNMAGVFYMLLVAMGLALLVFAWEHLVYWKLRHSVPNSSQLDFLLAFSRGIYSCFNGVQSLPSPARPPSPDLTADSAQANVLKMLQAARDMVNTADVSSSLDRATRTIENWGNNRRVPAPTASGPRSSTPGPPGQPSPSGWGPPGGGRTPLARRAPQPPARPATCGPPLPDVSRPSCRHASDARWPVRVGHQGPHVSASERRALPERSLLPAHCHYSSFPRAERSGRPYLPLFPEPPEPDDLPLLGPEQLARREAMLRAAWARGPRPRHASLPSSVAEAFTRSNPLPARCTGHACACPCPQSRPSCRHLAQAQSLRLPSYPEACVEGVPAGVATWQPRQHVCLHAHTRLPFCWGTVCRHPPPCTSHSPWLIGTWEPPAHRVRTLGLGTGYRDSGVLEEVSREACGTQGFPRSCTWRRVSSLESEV
Sequence of NR1(R755A)/NR2C (Q00961 20-1237, other chains not shown): as above
Sequence of NR1/NR2B(E790A) (Q00960 27-1482 E790A, other chains not shown): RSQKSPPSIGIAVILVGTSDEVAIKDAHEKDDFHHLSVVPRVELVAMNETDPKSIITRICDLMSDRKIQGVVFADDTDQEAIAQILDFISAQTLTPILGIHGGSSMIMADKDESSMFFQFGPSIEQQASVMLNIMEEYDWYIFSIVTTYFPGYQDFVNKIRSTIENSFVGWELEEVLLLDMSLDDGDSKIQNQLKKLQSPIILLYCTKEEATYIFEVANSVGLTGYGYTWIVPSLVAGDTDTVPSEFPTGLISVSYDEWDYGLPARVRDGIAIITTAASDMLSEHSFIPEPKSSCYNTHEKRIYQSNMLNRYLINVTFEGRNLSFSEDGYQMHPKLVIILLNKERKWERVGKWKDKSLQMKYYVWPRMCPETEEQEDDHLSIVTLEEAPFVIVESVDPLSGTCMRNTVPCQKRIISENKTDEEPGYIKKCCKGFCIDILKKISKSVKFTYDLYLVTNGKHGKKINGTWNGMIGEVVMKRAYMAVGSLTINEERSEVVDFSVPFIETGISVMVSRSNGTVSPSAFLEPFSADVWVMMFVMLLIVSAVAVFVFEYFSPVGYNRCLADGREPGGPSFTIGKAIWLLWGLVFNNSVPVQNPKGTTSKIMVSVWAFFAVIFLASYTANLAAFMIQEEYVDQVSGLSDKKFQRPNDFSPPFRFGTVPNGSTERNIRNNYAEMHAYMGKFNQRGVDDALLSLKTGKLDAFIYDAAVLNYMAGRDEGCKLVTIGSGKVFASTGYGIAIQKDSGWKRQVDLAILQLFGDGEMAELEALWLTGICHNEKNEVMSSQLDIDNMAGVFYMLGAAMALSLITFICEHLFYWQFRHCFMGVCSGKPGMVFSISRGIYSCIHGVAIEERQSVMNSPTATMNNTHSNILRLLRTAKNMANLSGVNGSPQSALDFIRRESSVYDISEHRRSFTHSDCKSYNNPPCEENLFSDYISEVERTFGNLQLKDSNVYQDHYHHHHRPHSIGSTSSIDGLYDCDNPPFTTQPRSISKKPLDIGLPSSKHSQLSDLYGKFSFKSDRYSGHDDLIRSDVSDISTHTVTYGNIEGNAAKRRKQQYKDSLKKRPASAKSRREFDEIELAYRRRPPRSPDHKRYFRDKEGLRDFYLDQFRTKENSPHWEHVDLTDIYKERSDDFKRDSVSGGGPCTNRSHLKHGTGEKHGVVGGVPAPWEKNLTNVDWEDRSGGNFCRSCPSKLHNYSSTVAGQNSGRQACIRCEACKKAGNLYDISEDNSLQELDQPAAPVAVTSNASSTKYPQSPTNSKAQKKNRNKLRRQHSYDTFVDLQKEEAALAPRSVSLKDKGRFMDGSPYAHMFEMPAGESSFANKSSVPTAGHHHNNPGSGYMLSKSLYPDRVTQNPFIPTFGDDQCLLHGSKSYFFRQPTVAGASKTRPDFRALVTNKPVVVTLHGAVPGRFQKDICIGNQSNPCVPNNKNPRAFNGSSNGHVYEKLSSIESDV
Sequence of NR1(E781A)/NR2C (Q00961 20-1237, other chains not shown): as the sequence (Q00961 20-1237, other chains not shown) above
Sequence of NR1(R523A)/NR2C (Q00961 20-1237, other chains not shown): as above
Sequence of NR1(Y692A)/NR2C (Q00961 20-1237, other chains not shown): as above
Sequence of NR1/NR2C(Q800A) (Q00961 20-1237 Q787A, other chains not shown): as the sequence (Q00961 20-1237, other chains not shown) above, with Q768A counted along it
Sequence of NR1/NR2C(Q800E) (Q00961 20-1237 Q787E, other chains not shown): as the sequence (Q00961 20-1237, other chains not shown) above, with Q768E counted along it
Sequence of NR1/NR2D(E791Q) (Q62645 28-1323 E814Q, other chains not shown): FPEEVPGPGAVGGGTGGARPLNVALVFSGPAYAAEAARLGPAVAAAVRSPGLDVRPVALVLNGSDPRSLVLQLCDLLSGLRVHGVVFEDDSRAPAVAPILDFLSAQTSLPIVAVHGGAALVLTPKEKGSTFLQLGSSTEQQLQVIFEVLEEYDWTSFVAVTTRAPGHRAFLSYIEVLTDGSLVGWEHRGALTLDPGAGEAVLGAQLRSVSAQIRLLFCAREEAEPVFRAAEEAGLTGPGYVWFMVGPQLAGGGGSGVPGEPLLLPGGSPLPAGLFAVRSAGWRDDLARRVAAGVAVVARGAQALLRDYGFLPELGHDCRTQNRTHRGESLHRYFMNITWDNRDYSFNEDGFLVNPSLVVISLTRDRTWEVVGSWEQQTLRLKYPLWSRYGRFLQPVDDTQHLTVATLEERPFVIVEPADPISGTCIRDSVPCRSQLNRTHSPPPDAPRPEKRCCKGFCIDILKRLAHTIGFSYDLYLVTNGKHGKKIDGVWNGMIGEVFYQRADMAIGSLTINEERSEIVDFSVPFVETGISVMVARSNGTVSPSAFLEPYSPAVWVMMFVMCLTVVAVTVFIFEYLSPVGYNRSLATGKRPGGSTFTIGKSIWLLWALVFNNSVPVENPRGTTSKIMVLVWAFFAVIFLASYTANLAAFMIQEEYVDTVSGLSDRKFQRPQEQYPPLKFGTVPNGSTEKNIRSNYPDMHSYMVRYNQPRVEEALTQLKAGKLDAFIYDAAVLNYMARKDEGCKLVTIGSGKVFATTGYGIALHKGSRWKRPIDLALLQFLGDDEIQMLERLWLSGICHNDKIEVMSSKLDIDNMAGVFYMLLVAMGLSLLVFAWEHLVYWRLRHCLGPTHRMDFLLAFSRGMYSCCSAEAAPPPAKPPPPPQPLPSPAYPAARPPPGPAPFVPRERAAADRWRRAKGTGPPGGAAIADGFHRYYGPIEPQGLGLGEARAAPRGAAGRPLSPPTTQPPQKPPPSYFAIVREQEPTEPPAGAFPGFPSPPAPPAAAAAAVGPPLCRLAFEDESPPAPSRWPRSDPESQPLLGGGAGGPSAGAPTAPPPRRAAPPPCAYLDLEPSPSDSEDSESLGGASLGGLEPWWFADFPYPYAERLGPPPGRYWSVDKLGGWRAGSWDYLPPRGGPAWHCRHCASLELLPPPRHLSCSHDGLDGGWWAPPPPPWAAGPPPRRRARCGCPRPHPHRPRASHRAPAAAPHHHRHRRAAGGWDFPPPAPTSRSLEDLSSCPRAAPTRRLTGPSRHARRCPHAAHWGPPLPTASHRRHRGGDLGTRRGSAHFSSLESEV
Sequence of NR1/NR2C(S707N,R710P) (Q00961 20-1237 S694N/R697P, other chains not shown): as the sequence (Q00961 20-1237, other chains not shown) above, with S675N, R678P counted along it
Sequence of NR1/NR2C(R703A) (Q00961 20-1237 R690A, other chains not shown): as the sequence (Q00961 20-1237, other chains not shown) above, with R671A counted along it
Sequence of NR1(Y692A)/NR2D (Q62645 28-1323, other chains not shown): as the sequence (Q62645 28-1323 E814Q, other chains not shown) above, with Q787E counted along it
Sequence of NR1/NR2D (Q62645 28-1323, other chains not shown): as the sequence (Q62645 28-1323 E814Q, other chains not shown) above, with Q787E counted along it

N[C@@H]1CON=C1O [DCS, D-cycloserine]
DCS Efficacy (% glycine) (NR1/NR2A): 90 ± 2 % glycine
DCS Efficacy (% glycine) (NR1/NR2B): 65 ± 2 % glycine
DCS Efficacy (% glycine) (NR1/NR2C [1]): 190 ± 6 % glycine and 190 % glycine
DCS Efficacy (% glycine) (NR1/NR2D): 94 ± 2 % glycine
DCS Efficacy (% glycine) (NR1(R523A)/NR2B): 31±2 % glycine
DCS Efficacy (% glycine) (NR1(R523A)/NR2C): 254±20 % glycine
DCS Efficacy (% glycine) (NR1/NR2B(R693A)): 68 ± 3 % glycine
DCS Efficacy (% glycine) (NR1/NR2C(R703A)): 190 ± 4 % glycine
DCS Efficacy (% glycine) (NR1/NR2A(E798Q)): 90 ± 2 % glycine
DCS Efficacy (% glycine) (NR1/NR2B(E790Q)): 78 ± 1 % glycine
DCS Efficacy (% glycine) (NR1/NR2C(Q800E)): 130 ± 4 % glycine
DCS Efficacy (% glycine) (NR1/NR2D(E791Q)): 110 ± 1 % glycine
DCS Efficacy (% glycine) (NR1/NR2B(E790A)): 68 ± 3 % glycine
DCS Efficacy (% glycine) (NR1/NR2C(Q800A)): 191 ± 7 % glycine
DCS Efficacy (% glycine) (NR1(Y692A)/NR2A): 77 ± 1 % glycine
DCS Efficacy (% glycine) (NR1(Y692A)/NR2B): 46 ± 1 % glycine
DCS Efficacy (% glycine) (NR1(Y692A)/NR2C): 59 ± 2 % glycine
DCS Efficacy (% glycine) (NR1(Y692A)/NR2D): 75 ± 1 % glycine
DCS Efficacy (% glycine) (NR1(R755A)/NR2C): 100 % glycine and 100 ± 5 % glycine
DCS Efficacy (% glycine) (NR1/NR2C(S707N,R710P)): 190 ± 7 % glycine
DCS Efficacy (% glycine) (NR1(E781A)/NR2B): 10 ± 1 % glycine
DCS Efficacy (% glycine) (NR1(E781A)/NR2C): 150 ± 10 % glycine
Rise time (NR1/NR2C [2]; [7]): 3.8 ± 0.7 ms
glutamate deactivation time course (NR1/NR2C [2]; [7]): 242 ± 50 ms
Deactivation (NR1/NR2C [2]; Table 3, Experimental): 130 to 160 ms
Desensitization (τ1) (NR1/NR2C [2]; Table 3, Experimental): 32 ms
Desensitization (τ2) (NR1/NR2C [2]; Table 3, Experimental): 540 ms
Rise time (NR1/NR2C [2]; Table 3, Experimental): 3.1 to 4.9 ms
area of larger conductance level (NR1/NR2C [3]; [8]): 72 ± 8%
area of smaller conductance level (NR1/NR2C [3]; [8]): 28 ± 5%
conductance level (larger) (NR1/NR2C [3]; [9]): 45 ± 5 pS
conductance level (smaller) (NR1/NR2C [3]; [9]): 28 ± 3 pS
mean duration of all open periods (NR1/NR2C [3]; 1 mM agonist + 1 mM glutamate, 6 one-channel patches): 0.61 ± 0.06 ms
open probability (Po) (NR1/NR2C [3]; 1 mM agonist + 1 mM glutamate, patches with a single active channel): 0.029 ± 0.006
mean open time, % of control (glycine) (NR1/NR2C [3]; DCS vs glycine, paired patches): 132%
open probability, % of control (glycine) (NR1/NR2C [3]; DCS vs glycine, paired patches): 163%
mean open time increased by, in the presence of DCS (NR1/NR2C [3]; [10]): 131 ± 4%
open probability increased by, in the presence of DCS (NR1/NR2C [3]; [10]): 194 ± 33%
MOT (mean open time) (NR1/NR2C [3]; Table 2, Experimental): 0.57 ms
Steady state Po (NR1/NR2C [3]; Table 3, Experimental): 0.028
area of shut τ2 (NR1/NR2C [3]; [11]): 10%
area of shut τ3 (NR1/NR2C [3]; [11]): 30%
area of shut τ4 (NR1/NR2C [3]; [11]): 36%
area of shut τ5 (NR1/NR2C [3]; [11]): 5%
shut time constant τ1 (NR1/NR2C [3]; [11]): 0.04 ± 0.005 ms
shut time constant τ2 (NR1/NR2C [3]; [11]): 0.55 ± 0.16 ms
shut time constant τ3 (NR1/NR2C [3]; [11]): 8.5 ± 1.2 ms
shut time constant τ4 (NR1/NR2C [3]; [11]): 34 ± 4 ms
shut time constant τ5 (NR1/NR2C [3]; [11]): 220 ± 79 ms
area of open time τ1 (NR1/NR2C [3]; [12]): 49%
area of open time τ2 (NR1/NR2C [3]; [12]): 51%
open time constant τ1 (NR1/NR2C [3]; [12]): 0.32 ms
open time constant τ2 (NR1/NR2C [3]; [12]): 0.76 ms
area of shut τ2 (NR1/NR2C [3]; [13]): 10%
area of shut τ3 (NR1/NR2C [3]; [13]): 36%
area of shut τ4 (NR1/NR2C [3]; [13]): 32%
area of shut τ5 (NR1/NR2C [3]; [13]): 3%
shut time constant τ1 (NR1/NR2C [3]; [13]): 0.037 ms
shut time constant τ2 (NR1/NR2C [3]; [13]): 0.48 ms
shut time constant τ3 (NR1/NR2C [3]; [13]): 9.5 ms
shut time constant τ4 (NR1/NR2C [3]; [13]): 36 ms
shut time constant τ5 (NR1/NR2C [3]; [13]): 248 ms
apparent mean open time (NR1/NR2C [3]; [14]): 0.52 ms
open probability (NR1/NR2C [3]; [14]): 0.026
d1+ (NR1/NR2C [4]; MIL fit Scheme 1, six patches): 1.2 ± 0.4 s⁻¹
d1− (NR1/NR2C [4]; MIL fit Scheme 1, six patches): 4.2 ± 1.0 s⁻¹
d2+ (NR1/NR2C [4]; MIL fit Scheme 1, six patches): 25 ± 8 s⁻¹
d2− (NR1/NR2C [4]; MIL fit Scheme 1, six patches): 38 ± 7 s⁻¹
k1+ (NR1/NR2C [4]; MIL fit Scheme 1, six patches): 420 ± 80 s⁻¹
k1− (NR1/NR2C [4]; MIL fit Scheme 1, six patches): 1270 ± 340 s⁻¹
k2+ (forward rate of the fast gating step) (NR1/NR2C [4]; MIL fit Scheme 1, six patches): 1395 ± 215 s^−1 and 1395± 215 ^* s^−1
k2− (NR1/NR2C [4]; MIL fit Scheme 1, six patches): 17510 ± 2135 s⁻¹
k3+ (NR1/NR2C [4]; MIL fit Scheme 1, six patches): 4795 ± 815 s⁻¹
k3− (closing rate) (NR1/NR2C [4]; MIL fit Scheme 1, six patches): 2150 ± 210 s^−1 and 2150 ± 210 ^* s^−1
k4+ (NR1/NR2C [4]; MIL fit Scheme 1, six patches): 75 ± 35 s⁻¹
k4− (NR1/NR2C [4]; MIL fit Scheme 1, six patches): 1070 ± 130 s⁻¹
MOT (mean open time) (NR1/NR2C [4]; [15]): 0.61 ms
Po (NR1/NR2C [4]; [15]): 0.029
LL/event (log likelihood per event) (NR1/NR2C [4]; goodness of MIL fit of Scheme 1): 4.86 ± 0.05
rate constant k2+ (NR1/NR2C [4]; [16]): 2150 s⁻¹
rate constant k3− (NR1/NR2C [4]; [16]): 2388 s⁻¹
Deactivation (NR1/NR2C [5]; Scheme Ia): 245 ms
Desensitization (τ1) (NR1/NR2C [5]; Scheme Ia): 15 ms
Desensitization (τ2) (NR1/NR2C [5]; Scheme Ia): 130 ms
Peak Po (NR1/NR2C [5]; Scheme Ia): 0.042
Rise time (NR1/NR2C [5]; Scheme Ia): 2.4 ms
Steady state Po (NR1/NR2C [5]; Scheme Ia): 0.030
Residual (normalized residual sum of squares) (NR1/NR2C [5]; Scheme Ia macroscopic fit): 2.67 × 10^−3
d1+ (NR1/NR2C [5]; Scheme Ia macroscopic fit): 1.4 s⁻¹
d1− (NR1/NR2C [5]; Scheme Ia macroscopic fit): 5.7 s⁻¹
d2+ (NR1/NR2C [5]; Scheme Ia macroscopic fit): 6.7 s⁻¹
d2− (NR1/NR2C [5]; Scheme Ia macroscopic fit): 16 s⁻¹
b+ (agonist binding rate) (NR1/NR2C [5]; glutamate binding step, Scheme Ia, with the labelled NR1 agonist): 560000 M⁻¹ s⁻¹
b− (unbinding rate) (NR1/NR2C [5]; glutamate unbinding step, Scheme Ia, with the labelled NR1 agonist): 3.4 s⁻¹
pKa for exocyclic amine [6]: 7.5
pKa for the exocyclic oxygen [6]: 4.5
